Experimental data from patent US10851053B2, “Chemical compounds” (GlaxoSmithKline Intellectual Property Development Limited, priority 2016, dated 2020).
pIC50: −log10 of the molar value. “And” between values parts separate entries of the source, which are not always exact repeats. Equal values may be shown once. Where a name gives a salt, the structure may show the parent alone.

Tested on: ATF4 translation (ATF4 pathway), SH-SY5Y-ATF4-NanoLuc cells
Experiment: ATF4 cell based assay (ATF4 5'-UTR NanoLuc luciferase reporter, Thapsigargin induced cellular stress)
Settings: SH-SY5Y-ATF4-NanoLuc cells challenged with Thapsigargin for 14-18 hours; average of two or more experimental runs; hydrochloride; read-out: average ATF4 pathway inhibitory activity (IC50)
Excerpt: The ATF4 reporter assay measures the effect of Thapsigargin induced cellular stress on ATF4 expression. For this reporter assay, a stable cell line was created by transfecting SH-SY5Y cells with a plasmid containing the NanoLuc® luciferase gene fused to the 5′-UTR of ATF4, under the control of the CMV promoter. The ATF4 5′-UTR contains two open reading frames which mediate the cellular stress-dependent translation of the reporter gene. Clones stably expressing the reporter construct were isolated and selected based on the luminescence response to thapsigargin and inhibition of this signal by test compounds. Briefly, SH-SY5Y-ATF4-NanoLuc cells were challenged with Thapsigargin for 14-18 hours to determine the stress effect with or without test compounds.
Cells were propagated in growth media consisting of 90% DMEM F12 (InVitrogen #11320-033), 10% Fetal Bovine Serum (Gibco #10438-026), 5 mM Glutamax (Gibco #35050-061), 5 mM Hepes, (Gibco #15630-080), and 0.5 mg/ml Geneticin (Gibco #10131-027). Cells were prepared for the assay by removing all media from cells, washing the plated cells with phosphate buffered saline, and detached by adding a solution comprised of 10% Tryple express solution (InVitrogen12604-021) and 90% enzyme-free cell dissociation buffer HANKS base (Gibco 13150-016). The trypsin was deactivated by adding assay media comprised of 90% phenol-red free DMEM F12 (InVitrogen, 11039), 10% Fetal Bovine Serum (Gibco #10438-026), (5 mM Glutamax (Gibco #35050-061), 5 mM Hepes, (Gibco #15630-080), and 0.5 mg/ml Geneticin (Gibco #10131-027). Suspended cells were spun down at 300 g for 5 min, the supernatant was removed and the cell pellet was suspended in warm media (30-37° C.) comprised as above at (1e6 cell/ml).
Assay plates were prepared by adding 250 nL of compound stock solution in 100% DMSO to each well, followed by dispensing 20 microliters/well cell suspension to deliver 15-20 k cell/well. Cells were incubated for 1 hour at 37° C. Then, 5 μL of 1.5 μM or 1 μM of Thapsigargin (final concentration: 200-300 nM) was added to each well of cells. Assay plates containing cells were incubated for 14-18 hours at 37° C.
The measurement of luciferase produced by the ATF4 constructs was measured as follows. Aliquots of the Nano-Glo reagent (Nano-Glo® Luciferase Assay Substrate, Promega, N113, Nano-Glo® Luciferase Assay Buffer, Promega, N112 (parts of Nano-Glo® Luciferase Assay System, N1150) were brought to room temperature, the substrate and buffer were mixed according to manufacturer's instructions. The cell plates were equilibrated to room temperature. 25 microliters/well of the mixed Nano-Glo reagent were dispensed into assay wells and pulse spun to settle contents and the plate was sealed with film. The plates were incubated at room temperature for 1 hour before detecting luminescence on an Envision plate reader.
Compounds of the invention are tested for activity against ATF4 translation in the above assay.

pIC50	SMILES
6.86	O=C(COc1ccc(Cl)nc1)N[C@H]1[C@@H]2CN(CCCOc3ccc(Cl)cc3)C[C@@H]21 [Example 71, N-((1R,5S,6s)-3-(3-(4-chlorophenoxy)propyl)-3-azabicyclo[3.1.0]hexan-6-yl)-2-((6-chloropyridin-3-yl)oxy)acetamide hydrochloride]

Same assay, conditions: SH-SY5Y-ATF4-NanoLuc cells challenged with Thapsigargin for 14-18 hours; average of two or more experimental runs; read-out: average ATF4 pathway inhibitory activity (IC50)

SMILES	pIC50
O=C(COc1ccc(Cl)c(C(F)(F)F)c1)NCC1CCN(CCCOc2ccc(Cl)cc2)C1 (stereo not drawn) [Example 72, 2-(4-chloro-3-(trifluoromethyl)phenoxy)-N-((1-(3-(4-chlorophenoxy)propyl)pyrrolidin-3-yl)methyl)acetamide]	> 7.00
O=C(COc1ccc(Cl)cc1)NCC1CCN(C(=O)CCOc2ccc(Cl)cc2)C1 (stereo not drawn) [Example 14, 2-(4-chlorophenoxy)-N-((1-(3-(4-chlorophenoxy)propanoyl)pyrrolidin-3-yl)methyl)acetamide]	> 7.00
CC1(CNC(=O)COc2ccc(Cl)cc2)CCN(C(=O)COc2ccc(Cl)cc2)C1 (stereo not drawn) [Example 17, 2-(4-chlorophenoxy)-N-((1-(2-(4-chlorophenoxy)acetyl)-3-methylpyrrolidin-3-yl)methyl)acetamide]	5.00 to 6.00
O=C(COc1ccc(Cl)cc1)N1CCC(CNCCOc2ccc(Cl)cc2)C1 (stereo not drawn) [Example 21, 2-(4-chlorophenoxy)-1-(3-(((2-(4-chlorophenoxy)ethyl)amino)methyl)pyrrolidin-1-yl)ethanone]	6.00 to 7.00
O=C(COc1ccc(Cl)cc1)NC1CCC2(CC1)CCN(C(=O)COc1ccc(Cl)cc1)C2 (stereo not drawn) [Example 23, 2-(4-chlorophenoxy)-N-(2-(2-(4-chlorophenoxy)acetyl)-2-azaspiro[4.5]decan-8-yl)acetamide]	> 7.00
O=C(COc1ccc(F)cc1Cl)NCC1CCN(CCCOc2ccc(Cl)cc2)C1 (stereo not drawn) [Example 46, 2-(2-chloro-4-fluorophenoxy)-N-((1-(3-(4-chlorophenoxy)propyl)pyrrolidin-3-yl)methyl)acetamide]	6.00 to 7.00
O=C(NCC1CCN(C(=O)COc2ccc(Cl)cc2)C1)C1Cc2cc(Cl)ccc2O1 (stereo not drawn) [Example 18, 5-chloro-N-((1-(2-(4-chlorophenoxy)acetyl)pyrrolidin-3-yl)methyl)-2,3-dihydrobenzofuran-2-carboxamide]	6.00 to 7.00
O=C(COc1ccc(Cl)cc1)NCC1CCN(CC(O)COc2ccc(Cl)cc2)C1 (stereo not drawn) [Example 77, 2-(4-chlorophenoxy)-N-((1-(3-(4-chlorophenoxy)-2-hydroxypropyl)pyrrolidin-3-yl)methyl)acetamide]	> 7.00 and 7.19

More lines, now with the values ahead:

pIC50	SMILES
> 7.00	O=C(COc1ccc(Cl)cn1)N[C@H]1[C@@H]2CN(CCCOc3ccc(Cl)cc3)C[C@@H]21 [Example 52, N-((1R,5S,6s)-3-(3-(4-chlorophenoxy)propyl)-3-azabicyclo[3.1.0]hexan-6-yl)-2-((5-chloropyridin-2-yl)oxy)acetamide]
6.00 to 7.00	O=C(COc1ccc(Cl)cc1)NC[C@@H]1CCN(CCCOc2ccc(Cl)cc2)C1 [Example 70, (S)-2-(4-chlorophenoxy)-N-((1-(3-(4-chlorophenoxy)propyl)pyrrolidin-3-yl)methyl)acetamide]
> 7.00	O=C(COc1ccc(Cl)cc1)N[C@H]1[C@@H]2CN(CC(F)COc3ccc(Cl)cc3)C[C@@H]21 (stereo partly drawn) [Example 78, 2-(4-chlorophenoxy)-N-((1R,5S,6s)-3-(3-(4-chlorophenoxy)-2-fluoropropyl)-3-azabicyclo[3.1.0]hexan-6-yl)acetamide]
